Results taken from ChEMBL document CHEMBL1201862, “PubChem BioAssay data set” (2004).
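Exposure lasted 48 hours, with cells grown in 96-well plates and compounds tested at five concentrations. GI50 = concentration required for 50% inhibition of growth.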 The source made the active and inactive calls. Rule as the data show it: active = GI50 up to about 1.1 µM and inactive = higher.

Experiments:
Test in all cases: NCI anticancer screen, dose series, 48 h
NCI-H226 = system: NCI-H226
HOP-62 = system: HOP-62
SW-620 = system: SW-620
HCC 2998 = system: HCC 2998
LOX IMVI = system: LOX IMVI
OVCAR-3 = system: OVCAR-3
HCT-15 = system: HCT-15
MDA-MB-435 = system: MDA-MB-435
RPMI-8226 = system: RPMI-8226
SK-MEL-5 = system: SK-MEL-5
T47D = system: T47D
A498 = system: A498
SN12C = system: SN12C
EKVX = system: EKVX
MOLT-4 = system: MOLT-4
SF-268 = system: SF-268
UACC-62 = system: UACC-62
NCI-H460 = system: NCI-H460
UACC-257 = system: UACC-257
SK-MEL-2 = system: SK-MEL-2

Measured: GI50

CC1=C(O)C(O)=C(C2=C(O)C(O)=C(C)C(=O)C2=O)C(=O)C1=O
> 100 µM: HCT-15
inactive: NCI-H226 35.2 µM | HOP-62 44 µM | SW-620 68.9 µM | HCC 2998 39.1 µM | LOX IMVI 30.6 µM | OVCAR-3 30.8 µM | MDA-MB-435 37.8 µM | RPMI-8226 34.3 µM | SK-MEL-5 27.2 µM | T47D 37.5 µM | A498 31 µM | SN12C 45 µM | EKVX > 100 µM | MOLT-4 98.2 µM | SF-268 56.9 µM | UACC-62 18.6 µM | NCI-H460 40.6 µM | UACC-257 35.6 µM

NC(=O)C(=CN1C(=O)CC(=O)NC1=S)C(N)=O
inactive: NCI-H226 > 100 µM | HOP-62 > 100 µM | SW-620 > 100 µM | HCC 2998 > 100 µM | LOX IMVI > 100 µM | OVCAR-3 > 100 µM | MDA-MB-435 > 100 µM | SK-MEL-5 > 100 µM | T47D > 100 µM | A498 > 100 µM | SN12C > 100 µM | EKVX > 100 µM | MOLT-4 > 100 µM | SF-268 > 100 µM | SK-MEL-2 > 100 µM | NCI-H460 > 100 µM | UACC-257 > 100 µM
> 100 µM: HCT-15

O=C(CC(=O)N(C(=O)/C=C\c1ccccc1)c1ccc(Cl)cc1)N1N=C(c2ccccc2)C(/N=N/c2cccc([N+](=O)[O-])c2)C1=O (configuration not stated)
inactive: NCI-H226 13.2 µM | HOP-62 11.9 µM | SW-620 2.32 µM | HCC 2998 3.87 µM | LOX IMVI 2.98 µM | OVCAR-3 2.36 µM | MDA-MB-435 9.82 µM | RPMI-8226 3.35 µM | T47D 4.2 µM | A498 6.03 µM | SN12C 1.29 µM | EKVX 16.9 µM | MOLT-4 2.56 µM | SF-268 4.23 µM | UACC-62 3.09 µM | NCI-H460 3.63 µM
1.36 µM: HCT-15

Cc1nn(C(=O)c2ccc(Cl)cc2)c2c1C(c1ccccc1)SC(=N)N2 (configuration not stated)
> 10 µM: HCT-15
inactive: NCI-H226 > 10 µM | HOP-62 > 10 µM | SW-620 > 10 µM | HCC 2998 > 10 µM | LOX IMVI > 10 µM | OVCAR-3 > 10 µM | MDA-MB-435 > 10 µM | RPMI-8226 > 10 µM | SK-MEL-5 > 10 µM | T47D > 10 µM | SN12C > 10 µM | EKVX > 10 µM | MOLT-4 > 10 µM | SF-268 > 10 µM | SK-MEL-2 > 10 µM | UACC-62 > 10 µM | NCI-H460 > 10 µM | UACC-257 > 10 µM

COC(=O)c1c(C)cccc1C1CN=NC12Cc1cc(C)cc(C)c1C2=O (configuration not stated)
inactive: NCI-H226 58.5 µM | HOP-62 44 µM | SW-620 48.5 µM | HCC 2998 22.9 µM | LOX IMVI 17 µM | OVCAR-3 28.9 µM | MDA-MB-435 37.2 µM | SK-MEL-5 19.2 µM | T47D 30.2 µM | A498 24.9 µM | SN12C 41.8 µM | EKVX 39.2 µM | MOLT-4 32.1 µM | SF-268 52.2 µM | SK-MEL-2 27.7 µM | UACC-62 70.6 µM | NCI-H460 32.1 µM | UACC-257 22.9 µM
30.5 µM: HCT-15

CC(=O)NC1(C)C(C)C2CC1C(C)C2(C)C (configuration not stated)
inactive: NCI-H226 > 100 µM | HOP-62 > 100 µM | SW-620 > 100 µM | HCC 2998 > 100 µM | OVCAR-3 > 100 µM | MDA-MB-435 > 100 µM | SK-MEL-5 > 100 µM | T47D > 100 µM | A498 > 100 µM | SN12C > 100 µM | EKVX > 100 µM | MOLT-4 > 100 µM | SF-268 > 100 µM | UACC-62 > 100 µM | NCI-H460 > 100 µM | UACC-257 > 100 µM

O=C([O-])C(O)C(O)C(=O)O.[K+] (configuration not stated) [POTASSIUM HYDROGENTARTRATE]
inactive: NCI-H226 > 100 µM | HOP-62 > 100 µM | SW-620 > 100 µM | LOX IMVI > 100 µM | OVCAR-3 > 100 µM | MDA-MB-435 > 100 µM | RPMI-8226 > 100 µM | SK-MEL-5 > 100 µM | T47D > 100 µM | A498 > 100 µM | SN12C > 100 µM | EKVX > 100 µM | MOLT-4 > 100 µM | SF-268 > 100 µM | SK-MEL-2 > 100 µM | UACC-62 > 100 µM | NCI-H460 > 100 µM | UACC-257 > 100 µM
> 100 µM: HCT-15

Cc1ccc(C(=O)OC(C)C)cc1/N=N/N(C)C
inactive: HOP-62 97.5 µM | SW-620 > 100 µM | HCC 2998 > 100 µM | LOX IMVI > 70 µM | OVCAR-3 46 µM | MDA-MB-435 > 100 µM | RPMI-8226 > 100 µM | SK-MEL-5 > 64.9 µM | T47D 44.5 µM | SN12C 97.5 µM | EKVX > 100 µM | MOLT-4 > 100 µM | SF-268 > 68.7 µM | SK-MEL-2 > 100 µM | UACC-62 > 96.2 µM | NCI-H460 > 100 µM | UACC-257 27.1 µM
> 100 µM: HCT-15

CC1(C)OCC(C2OC(On3nnc4ccc(Cl)cc43)C3OC(C)(C)OC23)O1 (configuration not stated)
> 100 µM: HCT-15
inactive: NCI-H226 66.1 µM | HOP-62 > 100 µM | SW-620 > 100 µM | LOX IMVI > 100 µM | OVCAR-3 > 100 µM | MDA-MB-435 > 100 µM | RPMI-8226 > 100 µM | SK-MEL-5 > 100 µM | T47D > 100 µM | A498 11.7 µM | SN12C > 100 µM | EKVX > 100 µM | MOLT-4 > 100 µM | SF-268 > 100 µM | SK-MEL-2 > 100 µM | UACC-62 > 100 µM | NCI-H460 > 100 µM | UACC-257 > 100 µM

CC1(C)C2CCC1(C)C(OC(=O)/C=C/C(=O)OC1CC3CCC1(C)C3(C)C)C2 (configuration not stated)
68.7 µM: HCT-15
inactive: HOP-62 > 100 µM | SW-620 38.1 µM | HCC 2998 64.4 µM | LOX IMVI 21.7 µM | OVCAR-3 48.8 µM | MDA-MB-435 67.3 µM | SK-MEL-5 17.9 µM | T47D > 100 µM | A498 > 100 µM | SN12C 82.2 µM | EKVX > 100 µM | MOLT-4 16.9 µM | SF-268 > 100 µM | SK-MEL-2 61.7 µM | UACC-62 31.2 µM | NCI-H460 67.9 µM | UACC-257 31 µM

Cc1cccc2c(N)c3cccc(C(=O)NCCN(C)C)c3nc12
< 0.0154 µM: HCT-15
active: HOP-62 < 0.0247 µM | SW-620 < 0.0225 µM | HCC 2998 0.027 µM | LOX IMVI < 0.033 µM | OVCAR-3 0.125 µM | MDA-MB-435 0.12 µM | RPMI-8226 < 0.021 µM | SK-MEL-5 0.114 µM | T47D 0.0378 µM | A498 0.157 µM | SN12C < 0.0167 µM | EKVX 0.0583 µM | MOLT-4 < 0.01 µM | SF-268 < 0.0265 µM | SK-MEL-2 0.231 µM | UACC-62 0.0649 µM | NCI-H460 < 0.01 µM | UACC-257 0.193 µM

COc1ccc(/C=C2\CCC(CNc3ccc(Br)cc3)C2=O)cc1 (configuration not stated)
inactive: NCI-H226 > 100 µM | HOP-62 > 100 µM | SW-620 67.3 µM | HCC 2998 83.9 µM | LOX IMVI 25.9 µM | OVCAR-3 > 100 µM | MDA-MB-435 > 100 µM | RPMI-8226 5.87 µM | SK-MEL-5 80.9 µM | T47D 84.7 µM | A498 > 100 µM | SN12C 10.2 µM | EKVX > 100 µM | MOLT-4 34.1 µM | SF-268 > 100 µM | UACC-62 34.8 µM | NCI-H460 76 µM | UACC-257 > 100 µM
8.45 µM: HCT-15

COc1cc(Nc2nc3cc(C(F)(F)F)ccc3nc2C(=O)O)cc(OC)c1OC
inactive: NCI-H226 32.9 µM | HOP-62 44.3 µM | SW-620 71.9 µM | HCC 2998 61 µM | LOX IMVI 32.1 µM | OVCAR-3 29.7 µM | MDA-MB-435 45.6 µM | SK-MEL-5 49 µM | T47D 22.5 µM | A498 77.8 µM | SN12C 51.2 µM | EKVX 33.3 µM | MOLT-4 39.7 µM | SF-268 43.9 µM | SK-MEL-2 19.1 µM | UACC-62 39.8 µM | NCI-H460 58.1 µM | UACC-257 > 100 µM
39.6 µM: HCT-15

COc1cc(Nc2c(C#N)[n+]([O-])c3ccccc3[n+]2[O-])cc(OC)c1OC
15.6 µM: HCT-15
inactive: HOP-62 29 µM | SW-620 29.9 µM | HCC 2998 18.4 µM | LOX IMVI 26.7 µM | OVCAR-3 25.6 µM | MDA-MB-435 37.4 µM | RPMI-8226 > 100 µM | SK-MEL-5 19.6 µM | T47D 14.8 µM | A498 48.3 µM | SN12C 35.8 µM | EKVX 29 µM | MOLT-4 42 µM | SF-268 27.2 µM | SK-MEL-2 39.1 µM | NCI-H460 35.2 µM | UACC-257 27.4 µM

N#C[C@H](c1nc2ccccc2[nH]1)c1nc2ccccc2nc1Cl
inactive: NCI-H226 22.1 µM | SW-620 6.08 µM | HCC 2998 > 40.6 µM | LOX IMVI 3 µM | OVCAR-3 > 100 µM | MDA-MB-435 14.3 µM | RPMI-8226 8.93 µM | SK-MEL-5 5.98 µM | T47D 3.96 µM | A498 26.2 µM | SN12C 12.7 µM | EKVX 9.68 µM | MOLT-4 4.04 µM | NCI-H460 > 25.1 µM | UACC-257 > 38.7 µM
